Patent publication US10358455B2, “Arene ruthenium complex, preparation method and utilization thereof” (Guangdong Pharmaceutical University, priority 2017, dated 2019)
Where two headings read alike, the source gives them in different places.

Tests used:
[1] = tested on: rat glioma C6 cancer cells; assay: MTT assay on rat glioma C6 cells; assay type: cell-based; details: 5-80 μM, read-out: The inhibitory effect IC50 on rat glioma C6 cancer cells
Description: The Antiproliferative Activities of Arene Ruthenium (II) Complexes Against Rat Glioma C6 Cancer Cells.
(§1) The antiproliferative effects of arene ruthenium (II) complex against rat glioma C6 cells were evaluated by MTT assay. Discarding the medium of the rat glioma C6 cells in exponential growth phase, washing the cells twice with phosphate-buffered saline (PBS), dissociating into single cells by digesting with 1 mL trypsin, counting the cells. Adding fresh medium to dilute cell population to 1.5×10^4 cells/mL, inoculating into 96-well tissue culture plates (3×10^3 cells per well) with 200 μL/well in 6 wells of each group, repeating twice, and then culturing at 37° C. in 5% CO2 saturated humidity incubator for 16 h. After adherent cells are apparent, removing the supernatant carefully and adding DMEM media. Meanwhile, the cells were incubated with different concentrations of arene ruthenium (II) complexes with a final concentration of 5, 10, 20, 40 and 80 μM respectively, and maintain the total volume at 200 μL/well. Thereafter, the cells were cultured for 72 h. At the end of incubation, 20 μL/well of MTT solution (5 mg/mL) was added and incubated for 4 h. Removing the supernatant carefully and replaced with 150 μL/well of DMSO and oscillated for 10 min to ensure complete dissolution of the formazan crystallization. The absorbance values were measured at 490 nm using a microplate reader. Cell viability was calculated according to the following formula: Cell viability (%)=A490 nm (cells in experimental group)/A490 nm (cells in control group)×100%
According to the values of cell viability, calculating the inhibitory activities (IC50) of the target complex against rat glioma C6 cells.

[2] = tested on: A549 lung adenocarcinoma cancer cells; assay: MTT assay on A549 lung adenocarcinoma cells; assay type: cell-based; details: 72 h, 5-80 μM, read-out: The inhibitory effect IC50 on A549 lung adenocarcinoma cancer cells
Description: The Antiproliferative Activities of Arene Ruthenium (II) Complexes Against A549 Lung Adenocarcinoma Cancer Cells
as §1, with “complex against A549 lung adenocarcinoma cells were” for “complex against rat glioma C6 cells were”, “MTT assay. Discarded the medium” for “MTT assay. Discarding the medium”, “of the A549 lung adenocarcinoma cells in” for “of the rat glioma C6 cells in”, “80 μM respectively and maintain” for “80 μM respectively, and maintain”, “and incubated at 37° C. for 4” for “and incubated for 4”
According to the values of cell viability, calculating the inhibitory activities (IC50) of the target complex against A549 lung adenocarcinoma cancer cells.

[3] = tested on: MDA-MB-231 breast cancer cells; assay: MTT assay on MDA-MB-231 breast cancer cells; assay type: cell-based; details: 72 h, 5-80 μM, read-out: The inhibitory effect IC50 on MDA-MB-231 breast cancer cells
Description: The Anti-Invasion Activities of Arene Ruthenium (II) Complexes Against MDA-MB-231 Breast Cancer Cells.
The anti-invasion activities of arene ruthenium (II) complexes against MDA-MB-231 breast cancer cells was evaluated by MTT assay. Discarding the medium of the MDA-MB-231 breast cancer cells in exponential growth phase, washing the cells twice with phosphate-buffered saline (PBS), dissociating into single cells by digesting with 1 mL trypsin, counting the cells. Adding fresh medium to dilute cell population to 1.5×10^4 cells/mL, inoculating into 96-well tissue culture plates (3×10^3 cells per well) with 200 μL/well in 6 wells of each group, repeating twice, and then culturing at 37° C. in 5% CO2 saturated humidity incubator for 16 h. After adherent cells are apparent, removing the supernatant carefully and adding DMEM media. Meanwhile, the cells were incubated with different concentrations of arene ruthenium (II) complexes with a final concentration of 5, 10, 20, 40 and 80 μM respectively and maintain the total volume at 200 μL/well. Thereafter, the cells were cultured for 72 h. At the end of incubation, 20 μL/well of MTT solution (5 mg/mL) was added and incubated for 4 h. Removing the supernatant carefully and replaced with 150 μL/well of DMSO and oscillated for 10 mins to ensure complete dissolution of the formazan crystallization. The absorbance values were measured at 490 nm using a microplate reader. Cell viability was calculated according to the following formula: Cell viability (%)=A490 nm (cells in experimental group)/A490 nm (cells in control group)×100%
According to the values of cell viability, calculating the inhibitory activities (IC50) of the target complex against MDA-MB-231 cells.

[4] = tested on: nasopharyngeal carcinoma CNE-1 cancer cells; assay: MTT assay on nasopharyngeal carcinoma CNE-1 cells; assay type: cell-based; details: 72 h, 5-80 μM, read-out: The inhibitory effect IC50 on CNE-1 cancer cells
Description: The Antiproliferative Activities of Arene Ruthenium (II) Complexes Against Nasopharyngeal Carcinoma CNE-1 Cancer Cells.
as §1, with “complex against nasopharyngeal carcinoma CNE-1 cells were” for “complex against rat glioma C6 cells were”, “of the nasopharyngeal carcinoma CNE-1 cells in” for “of the rat glioma C6 cells in”, “80 μM respectively and maintain” for “80 μM respectively, and maintain”, “and incubated at 37° C. for 4” for “and incubated for 4”
According to the values of cell viability, calculating the inhibitory activities (IC50) of the target complex against CNE-1 cancer cells.

[5] = tested on: human esophageal carcinoma EC-1 cells; assay: MTT assay on human esophageal carcinoma EC-1 cells; assay type: cell-based; details: 72 h, 5-80 μM, read-out: The inhibitory effect IC50 on human esophageal carcinoma EC-1 cells
Description: The Antiproliferative Activities of Arene Ruthenium (II) Complexes Against Human Esophageal Carcinoma EC-1 Cells.
as §1, with “complex against human esophageal carcinoma EC-1 cells were” for “complex against rat glioma C6 cells were”, “medium of human esophageal carcinoma EC-1 cells in” for “medium of the rat glioma C6 cells in”, “with 200 µL/well in 6” for “with 200 μL/well in 6”, “80 μM respectively and maintain” for “80 μM respectively, and maintain”, “and incubated at 37° C. for 4” for “and incubated for 4”
According to the values of cell viability, calculating the inhibitory activities (IC50) of the target complex against human esophageal carcinoma EC-1 cells.

[6] = tested on: human epidermal HaCaT cells; assay: MTT assay on human epidermal HaCaT cells; assay type: cell-based; details: 72 h, 5-80 μM, normal epidermal cells, read-out: The inhibitory effect IC50 on human epidermal HaCaT cells
Description: The Antiproliferative Activities of Arene Ruthenium (II) Complexes Against Human Epidermal HaCaT Cells.
The antiproliferative effects of arene ruthenium (II) complex against human epidermal HaCaT cells were evaluated by MTT assay. Discarding the medium of human epidermal HaCaT cells in exponential growth phase and washing the cells twice with phosphate-buffered saline (PBS), dissociating into single cells by digesting with 1 mL trypsin. Adding fresh medium to dilute cell population to 1.5×10^4 cells/mL, inoculating into 96-well tissue culture plates (3×10^3 cells per well) with 200 μL/well in 6 wells of each group, repeating twice, and then culturing at 37° C. in 5% CO2 saturated humidity incubator for 16 h. After adherent cells are apparent, carefully removing the supernatant and adding DMEM media. Meanwhile, the cells were incubated with different concentrations of arene ruthenium (II) complexes with a final concentration of 5, 10, 20, 40 and 80 μM respectively and maintain the total volume at 200 µL/well. Thereafter, the cells were cultured for 72 h. At the end of incubation, 20 μL/well of MTT solution (5 mg/mL) was added and incubated at 37° C. for 4 h. Removing the supernatant carefully and replaced with 150 μL/well of DMSO and oscillated for 10 min to ensure complete dissolution of the formazan crystallization. The absorbance values were measured at 490 nm using a microplate reader. Cell viability was calculated according to the following formula: Cell viability (%)=A490 nm (cells in experimental group)/A490 nm (cells in control group)×100%
According to the values of cell viability, calculating the inhibitory activities (IC50) of the target complex against human epidermal HaCaT cells.

ovarian cancer cells = details: read-out: anti-proliferative activity IC50, ovarian cancer cells; cited from earlier work
[7] = tested on: nasopharyngeal carcinoma cells; details: read-out: anti-proliferative activity IC50, nasopharyngeal carcinoma cells; cited from earlier work
lung cancer cells = details: read-out: anti-proliferative activity IC50, lung cancer cells; cited from earlier work
breast cancer cells = details: read-out: anti-proliferative activity IC50, breast cancer cells; cited from earlier work
MDA-MB-231 cells = assay: Cell cycle analysis by flow cytometry (PI staining); assay type: cell-based; details: FIG. 75
Description: After incubating with arene ruthenium (II) complex RAP07, the cell cycle arrest of MDA-MB-231 cells was analyzed with an Epics XL-MCL flow cytometer. The general method is: Trypsinizing the cells with trypsin, washing the cells with phosphate-buffered saline (PBS), and fixing the cells with 70% ethanol overnight at −20° C. Washing the fixed cells with phosphate-buffered saline (PBS) and staining with propidium iodide (PI) for 4 hours in the dark. Finally, the cell cycle arrest was analyzed using an Epics XL-MCL flow cytometer, cell cycle distribution was analyzed using MultiCycle software (Phoenix Flow Systems, San Diego, Calif.). The number of apoptotic cells with sub-diploid DNA were determined by measuring the […] in the cell cycle, every 10000 cells of each sample were recorded.

| Molecule | IC50 [3] | IC50 [4] | IC50 [5] | IC50 [6] | IC50 ([1]; 72 h) | also measured |
| --- | --- | --- | --- | --- | --- | --- |
| Cn1nnc2c(C(N)=O)ncn2c1=O [Temozolomide, reference compound] | – | – | – | – | – | IC50 ([1]; Rattus norvegicus, C6, 72 h): 259 ± 15.5 µM |
| N.N.[Cl][Pt][Cl] [cis-platin, reference compound] | 17.8 ± 0.9 µM | 19.1 ± 0.5 µM | 9.4 ± 0.21 µM | 17.1 ± 0.8 µM | – | IC50 [2]: 93.1 ± 0.9 µM |
| [(η^6-p-cymene)Ru(C6H5-BzTSC)Cl]Cl | – | – | – | – | – | IC50 (ovarian cancer cells): 34 µM; IC50 [7]: 20 µM; IC50 (lung cancer cells): 31 µM; IC50 (breast cancer cells): 10 µM |
| [(η^6-p-cymene)Ru(m-BrPIP)Cl]Cl [RAP062] | 9.2 ± 0.3 µM | 15.7 ± 0.11 µM | – | 37.3 ± 1.99 µM | 5.4 ± 0.17 µM | IC50 [2]: 6.59 ± 2.26 µM |
| [(η^6-p-cymene)Ru(m-ClPIP)Cl]Cl [RAP052] | – | – | – | – | – | IC50 [2]: 36.6 ± 0.67 µM |
| [(η^6-p-cymene)Ru(o-BrPIP)Cl]Cl [RAP061] | – | – | – | > 100 µM | – | – |
| [(η^6-p-cymene)Ru(o-OCH3PIP)Cl]Cl [RAP201] | – | 17.4 ± 0.47 µM | – | – | – | – |
| [(η^6-p-cymene)Ru(p-BrPIP)Cl]Cl [RAP07] | 8.33 ± 0.6 µM | – | 18.1 ± 1.7 µM | – | 5.6 ± 0.2 µM | Cell cycle arrest of MDA-MB-231 cells (MDA-MB-231 cells): Induces the S-Phase Arrest |
| [(η^6-p-cymene)Ru(p-CF3PIP)Cl]Cl [RAP083] | 6.27 ± 0.29 µM | – | 6.9 ± 0.2 µM | > 100 µM | 4.5 ± 0.07 µM | – |
| [(η^6-p-cymene)Ru(p-CH3PIP)Cl]Cl [RAP273] | 9.6 ± 0.3 µM | – | 18.4 ± 11.7 µM | – | – | – |
| [(η^6-p-cymene)Ru(p-FPIP)Cl]Cl [RAP04] | – | – | 18.2 ± 0.5 µM | – | 1.2 ± 0.3 µM | – |
| [(η^6-p-cymene)Ru(p-IPIP)Cl]Cl [RAP073] | 3.2 ± 0.1 µM | 3.3 ± 0.07 µM | – | – | – | – |
| [(η^6-p-cymene)Ru(p-N(CH3)2PIP)Cl]Cl [RAP093] | 6.4 ± 0.16 µM | 11.9 ± 0.73 µM | – | > 100 µM | 5.6 ± 0.11 µM | – |
| [(η^6-p-cymene)Ru(p-NO2PIP)Cl]Cl [RAP143] | – | – | – | – | 2.4 ± 0.05 µM | IC50 [2]: 11.8 ± 0.9 µM |
